Laboratory results published in ChEMBL document CHEMBL5346940, “Design, synthesis and biological evaluation of dual Topo II/HDAC inhibitors bearing pyrimido[5,4-b]indole and pyrazolo[3,4-d]pyrimidine motifs” (Eur J Med Chem, 2023).
pIC50: −log10 of the molar value. Calls of active or inactive are those of the source. The calls are words filed in the database; no cut-off is given here.

Legend:
MCF7 [1] = experiment: Induction of apoptosis in human MCF7 cells assessed as viable cells at 20 uM incubated for 48 hrs by AnnexinV-FITC/propidium iodide staining based flow cytometry analysis (reference value: 99.2 %); format: functional; details: read-out: Activity
MCF7 [2] = experiment: Induction of apoptosis in human MCF7 cells assessed as necrotic cells at 5 uM incubated for 48 hrs by AnnexinV-FITC/propidium iodide staining based flow cytometry analysis (reference value: 0.55 %); format: functional
[3] = target: DNA topoisomerase 2-alpha (Homo sapiens) (UniProt P11388); experiment: Poison activity at human topoisomerase 2 assessed as stabilization of enzyme-DNA cleavage complex by measuring linear DNA formation at 100 uM incubated for 6 mins by EtBr staining based UV light analysis
DNA topoisomerase 2-alpha (Homo sapiens), sequence (P11388 whole entry): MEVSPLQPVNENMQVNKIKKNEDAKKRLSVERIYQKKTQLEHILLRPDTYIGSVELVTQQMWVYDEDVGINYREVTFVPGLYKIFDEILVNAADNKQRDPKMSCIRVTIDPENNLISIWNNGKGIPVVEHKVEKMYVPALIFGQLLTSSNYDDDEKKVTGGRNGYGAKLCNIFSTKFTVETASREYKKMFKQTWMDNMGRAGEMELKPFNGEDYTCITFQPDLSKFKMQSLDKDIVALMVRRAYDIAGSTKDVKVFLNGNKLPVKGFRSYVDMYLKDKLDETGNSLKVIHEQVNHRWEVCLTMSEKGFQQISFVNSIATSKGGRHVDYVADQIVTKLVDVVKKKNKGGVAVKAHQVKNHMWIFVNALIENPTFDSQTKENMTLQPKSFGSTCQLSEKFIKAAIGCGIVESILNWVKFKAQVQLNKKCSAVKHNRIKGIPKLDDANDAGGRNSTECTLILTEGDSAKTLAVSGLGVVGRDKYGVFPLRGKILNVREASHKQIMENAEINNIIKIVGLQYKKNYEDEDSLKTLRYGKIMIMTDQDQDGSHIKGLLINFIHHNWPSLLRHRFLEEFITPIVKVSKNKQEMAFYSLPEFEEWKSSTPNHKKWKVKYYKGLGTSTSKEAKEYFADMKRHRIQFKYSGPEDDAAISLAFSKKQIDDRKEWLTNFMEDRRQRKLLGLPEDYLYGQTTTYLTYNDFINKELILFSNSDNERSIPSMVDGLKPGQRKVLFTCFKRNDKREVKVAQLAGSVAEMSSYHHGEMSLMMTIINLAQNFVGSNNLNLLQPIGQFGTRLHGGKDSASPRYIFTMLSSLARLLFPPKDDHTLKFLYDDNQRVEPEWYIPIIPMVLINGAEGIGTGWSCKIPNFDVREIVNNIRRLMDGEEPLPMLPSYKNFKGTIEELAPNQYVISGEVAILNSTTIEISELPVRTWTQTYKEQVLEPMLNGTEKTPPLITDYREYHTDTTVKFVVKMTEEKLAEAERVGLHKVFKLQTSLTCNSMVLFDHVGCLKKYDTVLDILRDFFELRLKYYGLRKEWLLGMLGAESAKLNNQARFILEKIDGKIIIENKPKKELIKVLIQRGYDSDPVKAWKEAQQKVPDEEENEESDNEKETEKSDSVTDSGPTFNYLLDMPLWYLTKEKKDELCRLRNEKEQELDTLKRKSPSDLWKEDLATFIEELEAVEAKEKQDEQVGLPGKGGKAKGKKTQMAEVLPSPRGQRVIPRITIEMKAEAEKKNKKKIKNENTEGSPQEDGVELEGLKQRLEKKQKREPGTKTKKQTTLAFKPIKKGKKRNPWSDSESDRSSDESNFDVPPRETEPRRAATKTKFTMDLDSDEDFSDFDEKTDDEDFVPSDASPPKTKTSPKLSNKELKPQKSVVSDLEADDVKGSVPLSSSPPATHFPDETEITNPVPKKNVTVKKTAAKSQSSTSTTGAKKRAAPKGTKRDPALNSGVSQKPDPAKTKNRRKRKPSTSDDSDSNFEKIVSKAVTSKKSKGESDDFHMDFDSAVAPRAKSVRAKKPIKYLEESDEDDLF

MCF7 [4] = experiment: Induction of apoptosis in human MCF7 cells assessed as viable cells at 5 uM incubated for 48 hrs by AnnexinV-FITC/propidium iodide staining based flow cytometry analysis (reference value: 99.2 %); format: functional; details: read-out: Activity
[5] = target: DNA topoisomerase 2-alpha (Homo sapiens) (UniProt P11388); experiment: Inhibition of human topoisomerase 2 assessed as relaxation of pBR322 plasmid DNA at 100 uM measured after 30 mins by ethidium bromide staining based UV transilluminator analysis
MCF7 [6] = experiment: Induction of apoptosis in human MCF7 cells assessed as late apoptotic cells at 20 uM incubated for 48 hrs by AnnexinV-FITC/propidium iodide staining based flow cytometry analysis (reference value: 0.015 %); format: functional
U-937 = experiment: Antiproliferative activity against human U-937 cells assessed as reduction in cell viability measured for 48 hrs by MTT assay; format: functional, cell-based; details: U-937, 48 h
MCF7 [7] = experiment: Inhibition of cell migration in human MCF7 cells assessed as reduction in cell migration at 5 uM measured for 48 hrs by wound healing assay based microscopic analysis (reference value: 70.25%); format: functional
MCF7 [8] = experiment: Induction of apoptosis in human MCF7 cells assessed as necrotic cells at 10 uM incubated for 48 hrs by AnnexinV-FITC/propidium iodide staining based flow cytometry analysis (reference value: 0.55 %); format: functional
MCF7 [9] = experiment: Induction of apoptosis in human MCF7 cells assessed as necrotic cells at 20 uM incubated for 48 hrs by AnnexinV-FITC/propidium iodide staining based flow cytometry analysis (reference value: 0.55 %); format: functional
MCF7 [10] = experiment: Induction of apoptosis in human MCF7 cells assessed as early apoptotic cells at 20 uM incubated for 48 hrs by AnnexinV-FITC/propidium iodide staining based flow cytometry analysis (reference value: 0.28 %); format: functional
MCF7 [11] = experiment: Induction of apoptosis in human MCF7 cells assessed as cell depletion at 10 uM incubated for 48 hrs by AO/EB staining based fluorescence microscopic analysis; format: functional
MGC-803 = experiment: Antiproliferative activity against human MGC-803 cells assessed as reduction in cell viability measured for 48 hrs by MTT assay; format: functional, cell-based; details: MGC-803, 48 h
MCF7 [12] = experiment: Induction of apoptosis in human MCF7 cells assessed as viable cells at 10 uM incubated for 48 hrs by AnnexinV-FITC/propidium iodide staining based flow cytometry analysis (reference value: 99.2 %); format: functional; details: read-out: Activity
MCF7 [13] = experiment: Induction of apoptosis in human MCF7 cells assessed as early apoptotic cells at 10 uM incubated for 48 hrs by AnnexinV-FITC/propidium iodide staining based flow cytometry analysis (reference value: 0.28 %); format: functional
MCF7 [14] = experiment: Induction of apoptosis in human MCF7 cells assessed as cell shrinkage at 10 uM incubated for 48 hrs by AO/EB staining based fluorescence microscopic analysis; format: functional
MCF7 [15] = experiment: cells; format: functional; details: Homo sapiens, time 48 hrs
Description: Inhibition of cell migration in human MCF7 cells assessed as reduction in cell migration at 1 uM measured for 48 hrs by wound healing assay based microscopic analysis (Rvb = 70.25%)

MCF7 [16] = experiment: cells; format: functional; details: Homo sapiens, time 48 hrs; remark: listed apart in the source
Description: Inhibition of cell migration in human MCF7 cells assessed as reduction in cell migration at 2.5 uM measured for 48 hrs by wound healing assay based microscopic analysis (Rvb = 70.25%)

Histone deacetylase = experiment: Inhibition of HDAC in human HeLa nuclear extract measured after 30 mins by fluorescence based assay; format: cell-free
MCF7 [17] = experiment: Induction of apoptosis in human MCF7 cells assessed as late apoptotic cells at 5 uM incubated for 48 hrs by AnnexinV-FITC/propidium iodide staining based flow cytometry analysis (reference value: 0.015 %); format: functional
MCF7 [18] = experiment: Induction of apoptosis in human MCF7 cells assessed as early apoptotic cells at 5 uM incubated for 48 hrs by AnnexinV-FITC/propidium iodide staining based flow cytometry analysis (reference value: 0.28 %); format: functional
MCF7 [19] = experiment: Induction of apoptosis in human MCF7 cells assessed as appearance of rounded cells at 10 uM incubated for 48 hrs by AO/EB staining based fluorescence microscopic analysis; format: functional, cell-based
[20] = target: T1, DNA topoisomerase 1 (Homo sapiens) (UniProt P11387); experiment: Inhibition of human topoisomerase 1 assessed as relaxation of pBR322 plasmid DNA at 100 uM measured after 30 mins by agarose gel electrophoresis analysis
T1 sequence (whole entry): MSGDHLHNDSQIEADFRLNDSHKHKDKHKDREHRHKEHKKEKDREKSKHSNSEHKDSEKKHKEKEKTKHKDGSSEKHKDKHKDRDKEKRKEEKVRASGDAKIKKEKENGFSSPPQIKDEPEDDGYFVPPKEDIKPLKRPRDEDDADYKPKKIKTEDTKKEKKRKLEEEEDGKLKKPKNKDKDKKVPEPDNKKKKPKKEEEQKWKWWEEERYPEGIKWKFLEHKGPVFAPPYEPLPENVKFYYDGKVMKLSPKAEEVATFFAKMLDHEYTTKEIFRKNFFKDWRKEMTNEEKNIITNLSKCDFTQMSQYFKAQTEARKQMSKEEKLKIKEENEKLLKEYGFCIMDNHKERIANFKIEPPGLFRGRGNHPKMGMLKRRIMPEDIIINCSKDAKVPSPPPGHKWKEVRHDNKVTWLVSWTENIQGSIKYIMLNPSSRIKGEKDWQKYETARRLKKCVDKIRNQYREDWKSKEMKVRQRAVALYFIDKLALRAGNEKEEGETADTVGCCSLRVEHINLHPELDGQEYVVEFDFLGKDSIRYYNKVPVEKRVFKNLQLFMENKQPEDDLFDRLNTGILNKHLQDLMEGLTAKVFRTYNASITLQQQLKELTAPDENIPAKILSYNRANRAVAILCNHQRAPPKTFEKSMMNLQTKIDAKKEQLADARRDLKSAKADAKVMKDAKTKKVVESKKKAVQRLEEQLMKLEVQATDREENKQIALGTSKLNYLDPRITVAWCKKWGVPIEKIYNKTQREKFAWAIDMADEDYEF

NIH3T3 = experiment: Antiproliferative activity against mouse 3T3 cells assessed as reduction in cell viability at 100 uM measured for 48 hrs by MTT assay relative to control; format: toxicity, cell-based; details: nih3t3, 48 h
MCF7 [21] = experiment: Induction of apoptosis in human MCF7 cells assessed as late apoptotic cells at 10 uM incubated for 48 hrs by AnnexinV-FITC/propidium iodide staining based flow cytometry analysis (reference value: 0.015 %); format: functional
MCF7 [22] = experiment: Antiproliferative activity against human MCF7 cells assessed as reduction in cell viability measured for 48 hrs by MTT assay; format: functional, cell-based; details: MCF7, 48 h

| SMILES | viability at 20 µM (MCF7 [1]) [%] | Activity (MCF7 [2]) [%] | viability at 5 µM (MCF7 [4]) [%] | topoisomerase II inhibition (active/inactive) [5] | Activity (MCF7 [6]) [%] | pIC50 (U-937) | inhibition at 5 µM (MCF7 [7]) [%] | Activity (MCF7 [8]) [%] | Activity (MCF7 [9]) [%] | Activity (MCF7 [10]) [%] | Activity (MCF7 [11]) | pIC50 (MGC-803) | viability at 10 µM (MCF7 [12]) [%] | Activity (MCF7 [13]) [%] | Activity (MCF7 [14]) | inhibition at 1 µM (MCF7 [15]) [%] | inhibition at 2.5 µM (MCF7 [16]) [%] | IC50 (Histone deacetylase) [µM] | Activity (MCF7 [17]) [%] | Activity (MCF7 [18]) [%] | also measured |
| --- | --- | --- | --- | --- | --- | --- | --- | --- | --- | --- | --- | --- | --- | --- | --- | --- | --- | --- | --- | --- | --- |
| O=C(CCCCSc1nc2c([nH]c3ccccc32)c(=O)[nH]1)NO | 45.5 | 0.3 | 83.4 | Active | 24.9 | 4.55 | 19.3 | 0.67 | 0.54 | 29 | Active | 5.02 | 60.6 | 26.6 | Active | 58.5 | 32.3 | 4.67 | 5.88 | 10.4 | Activity [3]: Active; Activity (MCF7 [19]): Active; inhibition (active/inactive call) [20]: Active; Activity (NIH3T3): 7.62%; Activity (MCF7 [21]): 12.1% |
| CCn1c(SCCCCC(=O)NO)nc2c([nH]c3ccccc32)c1=O | 53.7 | 0.6 | 93.4 | Active | 17.1 | 4.61 | 29.7 | 0.3 | 0.48 | 28.8 | Active | 4.91 | 78.7 | 14.1 | Active | 65.4 | 56.4 | 5.9 | 1.16 | 4.86 | pIC50 (MCF7 [22]): 4.74; Activity (MCF7 [19]): Active; inhibition (active/inactive call) [20]: Active; Activity (NIH3T3): 38.7%; Activity (MCF7 [21]): 6.9% |
